Experimental data taken from ChEMBL document CHEMBL4616633, “Citral Inhibits the Inflammatory Response and Hyperalgesia in Mice: The Role of TLR4, TLR2/Dectin-1, and CB2 Cannabinoid Receptor/ATP-Sensitive K+ Channel Pathways” (J Nat Prod, 2020).
Active and inactive are the calls of the source. The rule behind the calls is not given here.

Key:
Mus musculus [1] = test: Inhibition of carrageenan-induced paw edema in Swiss mouse at 0.5 mg/kg, sc pretreated for 1 hr followed by carrageenan-stimulation and measured after 6 hrs relative to control; assay type: functional
Mus musculus [2] = test: Inhibition of carrageenan-induced thermal allodynia in Swiss mouse at 0.5 mg/kg, sc pretreated for 1 hr followed by carrageenan-stimulation and measured after 6 hrs relative to control; assay type: functional
Mus musculus [3] = test: Inhibition of zymosan-induced TLR2/Dectin-1 Signaling Pathway assessed as reduction in paw edema in Swiss mouse at 0.5 mg/kg, sc pretreated for 1 hr followed by […] and measured after 48 hrs relative to control; assay type: functional
Mus musculus [4] = test: Inhibition of carrageenan-induced thermal allodynia in Swiss mouse at 1 mg/kg, ip pretreated for 30 mins followed by carrageenan-stimulation and measured after 6 hrs; assay type: functional, organism-based
Mus musculus [5] = test: Inhibition of carrageenan-induced paw edema in Swiss mouse at 1 mg/kg, ip pretreated for 30 mins followed by carrageenan-stimulation and measured after 6 hrs; assay type: functional, organism-based

Question: How did the inhibition in vivo at 0.5 mg/kg (Mus musculus [1]) turn out when `C[C@@H]1C[C@H]2[C@@H]3CCC4=CC(=O)C=C[C@]4(C)[C@@]3(F)[C@@H](O)C[C@]2(C)[C@@]1(O)C(=O)CO` [DEXAMETHASONE] was run?
Answer: Its inhibition in vivo at 0.5 mg/kg is 82%.

Question: And the inhibition in vivo at 0.5 mg/kg (Mus musculus [2])?
Answer: Its inhibition in vivo at 0.5 mg/kg is 72%.

Question: And the inhibition in vivo at 0.5 mg/kg (Mus musculus [3])?
Answer: The inhibition in vivo at 0.5 mg/kg was 45%.

Question: With `COc1ccc(C(=O)c2c(C)n(CCN3CCOCC3)c3cc(I)ccc23)cc1` as the molecule, how does the inhibition (Mus musculus [4]) read?
Answer: The inhibition was “inactive”.

Question: And the inhibition (Mus musculus [5])?
Answer: The inhibition was “inactive”.
